Tests used:
[1] = system: explants of wild-type mouse retina; experiment: In vitro model of light-mediated oxidative stress: isoprostane release from retina explants; format: cell-based; conditions: intense light (~10,000 Lux), 2-day incubation
Source text: FIG. 6. Development of an in vitro model of light-mediated oxidative stress. An in vitro model of oxidative stress was developed to determine the therapeutic potency of the TAPP compositions. In this model, explants of wild-type mouse retina are placed into culture media and exposed to intense white light over a 2 day period. Control samples were exposed to subdued lighting (˜100 Lux). The formation of oxidized arachadonic acid (isoprostanes), which is a direct measure of oxidative stress in biological samples, was monitored with a commercially available assay kit (Cayman Chemical Company, Ann Arbor, Mich.).
FIG. 7. TAPP1 reduces light-mediated oxidative stress. The aforementioned in vitro assay of light-mediated oxidative stress was employed to determine the therapeutic potency of TAPP1. In this experiment, isoprostane released from retina explants was measured in the absence and presence of TAPP1 in subdued lighting (˜100 Lux) and during intense light exposure (˜10,000 Lux). […]
The compound TAPP1 (C18H24N4O3), MW 344.18, is formulated as described above. […] TAPP content of the supernatant is analyzed by a capillary reverse phase C18 column. […] The relative quantity of the TAPP is determined by area integration of the TAPP elution peak. […] Isoprostanes are measured with a commercially available in vitro assay kit.

SOD1 mutant mice = experiment: Oxidative stress biomarkers (LH, MDA, NT immunoreactivity) in eye tissue of SOD1 mutant mice after eye drop treatment; format: in vivo, mouse; conditions: eye drops 40 mM TAPP1 in 45% β-cyclodextrin, one drop per day, 30 treatments over 6 weeks, versus vehicle
Source text: FIG. 9. TAPP1 reduces oxidative stress in SOD1 mutant mice. The evolution of oxidative stress and retinal pathology in SOD1 mutant mice, is preceded by the formation of lipid hydroperoxides (LH), and conjugates of malondialdehyde (MDA) and nitrotyrosine (NT). These conjugates are detected in situ using appropriate monoclonal antibodies. To determine the therapeutic efficacy of the TAPP compositions in vivo, we probed fixed sections of eye tissues for these biomarkers following treatment with either TAPP1 (eye drop formulation containing 40 mM TAPP1 in 45% β-cyclodextrin) or the TAPP1 vehicle (β-cyclodextrin alone). Mice (aged 3 months) were treated with one drop per day, 5 treatments per week for 6 weeks, for a total of 30 treatments. In these studies, areas of increased light intensity indicate increased amounts of LH, MDA or NT in the tissue sections.
A mouse which lacks, or is deficient in, the superoxide dismutase 1 (SOD1) enzyme, is used as a model of oxidative stress. Previous investigations have shown that the SOD1-deficient mouse manifests a phenotype which is consistent with age-related macular degeneration (i.e., formation of drusen, thickening of Bruch's membrane and choroidal neovascularization; Imamura, et. al, Proc Natl Acad Sci, 103: 11282-11287, 2006). Following examination of appropriate biomarkers of oxidative stress, the SOD mutant mice are treated with an eye drop formulation containing 40 mM TAPP1 in β-cyclodextrin. The treatment protocol is one drop per day, 5 treatments per week for 6 weeks, for a total of 30 treatments. SOD mutant mice in the control group receive only the TAPP1 vehicle. Following the treatment regime, mice are sacrificed and eyeglobes are enucleated, fixed and prepared for histological examination. The presence of oxidative stress biomarkers (lipid hydroperoxides, LH; malondialdehyde, MDA; and nitrotyrosine, NT) in the tissue sections were evaluated by immunohistochemistry (FIG. 9). […]

CC1(C)CC(OC(=O)c2cc(-c3ccncc3)n[nH]2)CC(C)(C)N1[O] [TAPP1, 1-oxyl-2,2,6,6-tetramethylpiperidin-4-yl 3-(pyridin-4-yl)-1H-pyrazole-5-carboxylate]
significantly reduced: isoprostane release from retina explants [1] | lipid hydroperoxide (LH) immunoreactivity in ocular tissue (SOD1 mutant mice) | malondialdehyde (MDA) immunoreactivity in ocular tissue (SOD1 mutant mice) | nitrotyrosine (NT) immunoreactivity in ocular tissue (SOD1 mutant mice)
